Test results as given in ChEMBL document CHEMBL1201862, “PubChem BioAssay data set” (2004).
One block for each molecule: values may come before it. Active and inactive are the calls of the source.

How the values were obtained:
Melanocortin receptor 4 = Melanocortin receptor 4 (Homo sapiens, UniProt P32245); type: functional, cell-based;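 also: Cell-based assay with luminescence read-out, confirmatory dose-response testing for agonist activity of biased ligands at MC4R; human U2OS cells with tagged receptor and beta-arrestin; potency of agonists that increase receptor coupling to beta-arrestin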
[1] = molecular target: T1, Short transient receptor potential channel 4 (Mus musculus, UniProt Q9QUQ5); test: mouse TRPC4 channel activators, dose response, cell-based, HEK293 TRPC4/mu-opioid, Fluo-4 calcium (AID 434937); type: functional
T1 sequence (Q9QUQ5 whole entry): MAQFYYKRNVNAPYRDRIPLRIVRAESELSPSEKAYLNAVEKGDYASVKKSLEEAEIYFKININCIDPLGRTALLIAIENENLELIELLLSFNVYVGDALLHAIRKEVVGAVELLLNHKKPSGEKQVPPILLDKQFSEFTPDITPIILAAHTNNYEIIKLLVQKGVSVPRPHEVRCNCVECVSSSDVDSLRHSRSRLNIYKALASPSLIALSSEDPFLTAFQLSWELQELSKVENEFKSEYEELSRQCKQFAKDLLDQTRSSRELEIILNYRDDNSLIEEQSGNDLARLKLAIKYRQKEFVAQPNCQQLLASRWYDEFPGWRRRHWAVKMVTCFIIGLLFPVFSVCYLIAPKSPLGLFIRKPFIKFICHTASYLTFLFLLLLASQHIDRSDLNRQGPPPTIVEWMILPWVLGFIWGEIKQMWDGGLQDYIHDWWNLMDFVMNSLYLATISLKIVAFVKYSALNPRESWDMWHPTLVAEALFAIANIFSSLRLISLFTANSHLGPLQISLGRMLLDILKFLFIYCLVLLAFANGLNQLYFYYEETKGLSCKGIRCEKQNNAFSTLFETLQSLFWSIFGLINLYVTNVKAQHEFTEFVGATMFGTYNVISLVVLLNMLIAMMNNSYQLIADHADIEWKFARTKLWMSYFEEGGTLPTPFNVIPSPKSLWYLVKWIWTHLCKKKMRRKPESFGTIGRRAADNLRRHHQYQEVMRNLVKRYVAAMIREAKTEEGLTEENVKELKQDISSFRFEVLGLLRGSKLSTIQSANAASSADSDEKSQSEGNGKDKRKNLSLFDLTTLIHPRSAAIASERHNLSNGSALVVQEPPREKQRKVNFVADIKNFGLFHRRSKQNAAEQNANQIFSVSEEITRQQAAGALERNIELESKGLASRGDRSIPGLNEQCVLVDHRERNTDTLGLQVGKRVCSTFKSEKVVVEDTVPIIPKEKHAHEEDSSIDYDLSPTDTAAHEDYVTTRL

HEK293 [2] = test: NOD1 signaling inhibitors, primary screen, cell-based, luminescence, uHTS (AID 1578); type: functional; conditions: Homo sapiens
HEK293 [3] = test: cells; type: functional, cell-based; conditions: Homo sapiens
HEK293 [4] = test: cells; type: functional, cell-based; conditions: Homo sapiens; remark: listed apart in the source
HEK293 [5] = test: NOD2 signaling inhibitors in MDP-stimulated cells, cell-based, uHTS, luminescence (AID 2001); type: functional; conditions: Homo sapiens
Tumor necrosis factor = Tumor necrosis factor (Homo sapiens, UniProt P01375); test: TNFa-triggered NF-kB activation inhibitors, SAR follow-up, cell-based, revised (AID 2337); type: functional
[6] = molecular target: T2, Nucleotide-binding oligomerization domain-containing protein 1 (Homo sapiens, UniProt Q9Y239); test: NOD1 signaling inhibitors, SAR follow-up, revised (AID 2333); type: functional
T2 sequence (Q9Y239 whole entry): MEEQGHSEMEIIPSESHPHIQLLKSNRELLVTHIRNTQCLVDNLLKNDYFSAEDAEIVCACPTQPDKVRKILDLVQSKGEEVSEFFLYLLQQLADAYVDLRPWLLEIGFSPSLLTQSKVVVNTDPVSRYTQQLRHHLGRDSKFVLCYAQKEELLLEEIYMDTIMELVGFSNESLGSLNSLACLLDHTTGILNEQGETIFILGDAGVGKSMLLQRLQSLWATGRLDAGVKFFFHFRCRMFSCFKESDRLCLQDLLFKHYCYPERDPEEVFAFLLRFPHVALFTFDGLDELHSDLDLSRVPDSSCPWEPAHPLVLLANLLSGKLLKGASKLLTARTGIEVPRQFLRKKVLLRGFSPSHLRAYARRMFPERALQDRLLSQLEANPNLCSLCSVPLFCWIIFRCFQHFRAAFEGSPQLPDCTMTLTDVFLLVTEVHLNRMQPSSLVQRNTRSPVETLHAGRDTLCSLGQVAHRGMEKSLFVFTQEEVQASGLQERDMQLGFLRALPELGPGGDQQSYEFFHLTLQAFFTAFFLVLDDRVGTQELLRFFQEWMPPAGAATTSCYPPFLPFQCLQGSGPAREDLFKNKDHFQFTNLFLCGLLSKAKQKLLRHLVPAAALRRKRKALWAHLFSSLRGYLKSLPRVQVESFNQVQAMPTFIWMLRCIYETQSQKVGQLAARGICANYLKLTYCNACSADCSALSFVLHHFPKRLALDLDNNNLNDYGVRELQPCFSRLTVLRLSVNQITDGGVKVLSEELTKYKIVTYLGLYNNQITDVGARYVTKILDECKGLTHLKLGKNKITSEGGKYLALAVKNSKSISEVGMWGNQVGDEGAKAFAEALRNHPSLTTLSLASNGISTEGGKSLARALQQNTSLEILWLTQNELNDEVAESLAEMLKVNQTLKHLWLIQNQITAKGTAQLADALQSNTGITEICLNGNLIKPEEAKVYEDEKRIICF

HEK293 [7] = test: cells; conditions: Homo sapiens
[8] = molecular target: T3, High affinity choline transporter 1 (Homo sapiens, UniProt Q9GZV3); test: CHT inhibitors, dose response, cell-based, 5-point CRC, membrane potential dye (AID 504840); type: functional
T3 sequence (Q9GZV3 whole entry): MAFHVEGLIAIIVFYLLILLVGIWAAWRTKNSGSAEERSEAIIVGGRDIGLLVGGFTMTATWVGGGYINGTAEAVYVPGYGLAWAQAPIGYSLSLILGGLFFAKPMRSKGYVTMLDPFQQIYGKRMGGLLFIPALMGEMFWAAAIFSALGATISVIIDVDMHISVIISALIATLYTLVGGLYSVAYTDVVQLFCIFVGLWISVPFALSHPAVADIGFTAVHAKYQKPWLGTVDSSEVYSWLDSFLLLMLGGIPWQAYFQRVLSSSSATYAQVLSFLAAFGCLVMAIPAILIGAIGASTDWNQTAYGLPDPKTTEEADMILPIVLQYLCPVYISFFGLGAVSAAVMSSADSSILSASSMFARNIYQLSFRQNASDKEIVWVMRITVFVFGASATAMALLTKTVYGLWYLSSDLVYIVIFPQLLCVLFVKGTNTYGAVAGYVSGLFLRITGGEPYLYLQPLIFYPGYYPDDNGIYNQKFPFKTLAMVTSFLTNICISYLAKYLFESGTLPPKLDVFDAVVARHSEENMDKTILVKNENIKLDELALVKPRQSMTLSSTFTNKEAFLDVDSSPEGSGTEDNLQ

[9] = molecular target: 26S proteasome non-ATPase regulatory subunit 14 (Homo sapiens, UniProt O00487); test: inhibition of proteasome subunit RPN11 – biochemical, fluorescence polarization, uHTS hits, confirmation (AID 602368); type: functional
[10] = molecular target: 72 kDa type IV collagenase (Homo sapiens, UniProt P08253); test: Dose Response validation of uHTS RPN11 inhibitor hits using a MMP-2 Fluorescence assay.; type: functional
Prothrombin = Prothrombin (Bos taurus, UniProt P00735); test: thrombin inhibition, dose response, biochemical, fluorescence polarization, uHTS hits (AID 602369); type: functional
[11] = molecular target: FAD-linked sulfhydryl oxidase ALR (Homo sapiens, UniProt P55789); test: inhibitors of human ALR sulfhydryl oxidase, dose response, biochemical, H2O2 detection, luminescence, cherry-pick (AID 493248)
[12] = molecular target: Eukaryotic translation initiation factor 4E (Mus musculus, UniProt P63073); test: eIF4E–eIF4G protein interaction inhibitors, dose response, biochemical, TR-FRET (AID 855); type: functional;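 also: potency for disrupting eIF4E binding to eIF4GI seen as loss of FRET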
Cytochrome P450 3A4 = Cytochrome P450 3A4 (Homo sapiens, UniProt P08684); conditions: Potency;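 also: confirmatory qHTS run detecting inhibitors and substrates of CYP3A4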
[13] = molecular target: DNA dC->dU-editing enzyme APOBEC-3A (Homo sapiens, UniProt P31941); test: Dose Response confirmation of small molecule APOBEC3A DNA Deaminase Inhibitors via a fluorescence-based single-stranded DNA deaminase assay. [Related pubchem assays (depositor defined):AID493011, AID493024]; type: functional
[14] = molecular target: DNA dC->dU-editing enzyme APOBEC-3G (Homo sapiens, UniProt Q9HC16); type: functional;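 also: Dose-response counterscreen measuring inhibition of APOBEC3G DNA deaminase activity, run while confirming APOBEC3A inhibitors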
[15] = Shn3 3'UTR reporter inhibitors, dose response, cell-based, Clone20 osteoblasts, firefly luciferase, cherry-picked (AID 624132); type: functional;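 also: firefly luciferase luminescence from reporter carrying the Shn3 3'UTR in osteoblasts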
[16] = HepG2 cell cytotoxicity, dose response, cytotoxicity control for Shn3 inhibitor project, CellTiter-Glo, cherry-picked (AID 624134); type: functional, cell-based
[17] = control 3'UTR Renilla luciferase suppression, dose response, counter-screen for Shn3 inhibitor project, cell-based, Clone20-Shn3RL, cherry-picked (AID 624133); type: functional
SUMO-activating enzyme = SUMO-activating enzyme (Homo sapiens, UniProt Q9UBT2); test: SUMOylation inhibitor hit validation, confirmation, SUMOylation inhibitor project, biochemical, AlphaScreen (AID 2018); type: functional
[18] = molecular target: Dual specificity tyrosine-phosphorylation-regulated kinase 1A (Rattus norvegicus, UniProt Q63470); type: biochemical, Homo sapiens

DNA dC->dU-editing enzyme APOBEC-3G, sequence (Q9HC16 whole entry): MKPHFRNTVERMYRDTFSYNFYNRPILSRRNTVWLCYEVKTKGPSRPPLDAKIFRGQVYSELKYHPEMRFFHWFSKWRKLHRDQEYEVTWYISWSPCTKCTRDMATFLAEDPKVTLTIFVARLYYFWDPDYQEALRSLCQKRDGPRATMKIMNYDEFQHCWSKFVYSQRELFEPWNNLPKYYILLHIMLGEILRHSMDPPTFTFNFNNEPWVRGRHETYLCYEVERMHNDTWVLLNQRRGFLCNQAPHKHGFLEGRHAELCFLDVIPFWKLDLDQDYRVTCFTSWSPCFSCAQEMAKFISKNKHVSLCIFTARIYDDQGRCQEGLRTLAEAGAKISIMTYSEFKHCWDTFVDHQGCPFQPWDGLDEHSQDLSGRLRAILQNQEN
DNA dC->dU-editing enzyme APOBEC-3A, sequence (P31941 whole entry): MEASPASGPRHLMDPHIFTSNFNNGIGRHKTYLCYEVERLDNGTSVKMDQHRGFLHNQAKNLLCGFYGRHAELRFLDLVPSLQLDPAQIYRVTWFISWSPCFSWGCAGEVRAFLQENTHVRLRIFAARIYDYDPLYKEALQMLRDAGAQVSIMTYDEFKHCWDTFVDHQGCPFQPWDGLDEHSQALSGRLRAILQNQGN
26S proteasome non-ATPase regulatory subunit 14, sequence (O00487 whole entry): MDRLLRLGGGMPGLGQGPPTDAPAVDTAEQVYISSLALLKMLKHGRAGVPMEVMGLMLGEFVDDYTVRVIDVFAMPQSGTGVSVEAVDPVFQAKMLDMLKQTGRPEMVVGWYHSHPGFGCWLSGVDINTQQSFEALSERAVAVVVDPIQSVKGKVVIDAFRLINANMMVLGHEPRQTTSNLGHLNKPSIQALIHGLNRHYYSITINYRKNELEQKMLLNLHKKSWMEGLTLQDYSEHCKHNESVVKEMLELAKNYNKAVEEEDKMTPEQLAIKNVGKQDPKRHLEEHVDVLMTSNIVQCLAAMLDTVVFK
72 kDa type IV collagenase, sequence (P08253 whole entry): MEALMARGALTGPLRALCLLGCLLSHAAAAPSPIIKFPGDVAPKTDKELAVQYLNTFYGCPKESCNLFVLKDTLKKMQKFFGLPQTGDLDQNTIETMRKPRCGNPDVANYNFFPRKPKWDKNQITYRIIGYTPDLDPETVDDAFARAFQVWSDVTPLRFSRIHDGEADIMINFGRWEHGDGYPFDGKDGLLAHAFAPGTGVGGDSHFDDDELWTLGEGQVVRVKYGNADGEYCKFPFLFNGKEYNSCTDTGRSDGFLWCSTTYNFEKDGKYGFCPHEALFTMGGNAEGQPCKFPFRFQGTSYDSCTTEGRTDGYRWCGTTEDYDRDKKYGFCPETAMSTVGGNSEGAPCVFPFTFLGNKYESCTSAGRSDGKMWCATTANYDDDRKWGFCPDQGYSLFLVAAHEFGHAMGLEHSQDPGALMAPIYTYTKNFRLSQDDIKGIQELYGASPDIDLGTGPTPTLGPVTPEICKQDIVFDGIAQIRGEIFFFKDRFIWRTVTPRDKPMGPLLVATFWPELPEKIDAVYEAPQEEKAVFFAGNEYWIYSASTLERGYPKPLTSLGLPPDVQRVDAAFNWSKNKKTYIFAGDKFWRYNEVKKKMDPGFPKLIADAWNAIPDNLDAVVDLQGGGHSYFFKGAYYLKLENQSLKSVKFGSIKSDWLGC
Tumor necrosis factor, sequence (P01375 whole entry, the tested form may be a part): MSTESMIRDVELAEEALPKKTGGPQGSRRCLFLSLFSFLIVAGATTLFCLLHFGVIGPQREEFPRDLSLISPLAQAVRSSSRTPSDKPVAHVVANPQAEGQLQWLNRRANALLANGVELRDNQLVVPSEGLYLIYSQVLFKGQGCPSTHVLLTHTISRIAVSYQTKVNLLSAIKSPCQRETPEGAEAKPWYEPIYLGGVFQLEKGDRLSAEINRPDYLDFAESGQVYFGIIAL
Melanocortin receptor 4, sequence (P32245 whole entry): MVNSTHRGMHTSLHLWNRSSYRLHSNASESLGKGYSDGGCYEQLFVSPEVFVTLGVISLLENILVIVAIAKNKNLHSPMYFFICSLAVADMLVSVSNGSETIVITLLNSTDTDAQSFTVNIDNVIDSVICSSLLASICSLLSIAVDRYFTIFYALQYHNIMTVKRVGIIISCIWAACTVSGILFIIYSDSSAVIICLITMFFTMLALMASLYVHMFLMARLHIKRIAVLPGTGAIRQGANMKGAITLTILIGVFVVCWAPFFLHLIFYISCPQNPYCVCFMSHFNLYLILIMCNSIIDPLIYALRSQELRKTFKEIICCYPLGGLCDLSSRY
Cytochrome P450 3A4, sequence (P08684 whole entry): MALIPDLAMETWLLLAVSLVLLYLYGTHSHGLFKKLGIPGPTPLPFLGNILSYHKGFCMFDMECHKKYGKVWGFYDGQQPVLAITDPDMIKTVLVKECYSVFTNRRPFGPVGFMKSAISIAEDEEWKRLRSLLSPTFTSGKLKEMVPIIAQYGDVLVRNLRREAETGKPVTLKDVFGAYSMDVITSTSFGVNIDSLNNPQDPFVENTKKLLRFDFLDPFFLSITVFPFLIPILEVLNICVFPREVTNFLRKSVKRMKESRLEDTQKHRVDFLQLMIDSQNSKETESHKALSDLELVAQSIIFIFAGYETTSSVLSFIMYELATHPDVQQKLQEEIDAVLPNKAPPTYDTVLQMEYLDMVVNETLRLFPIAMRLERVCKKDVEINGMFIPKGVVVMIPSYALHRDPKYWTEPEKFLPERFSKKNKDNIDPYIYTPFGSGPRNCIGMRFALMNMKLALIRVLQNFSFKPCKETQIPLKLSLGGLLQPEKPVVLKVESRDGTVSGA
FAD-linked sulfhydryl oxidase ALR, sequence (P55789 whole entry): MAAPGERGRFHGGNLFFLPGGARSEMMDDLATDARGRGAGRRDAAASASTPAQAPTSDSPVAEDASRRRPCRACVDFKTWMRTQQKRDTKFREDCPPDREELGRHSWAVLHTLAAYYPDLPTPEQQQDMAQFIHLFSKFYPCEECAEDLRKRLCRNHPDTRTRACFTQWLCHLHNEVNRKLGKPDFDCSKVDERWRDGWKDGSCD
SUMO-activating enzyme, sequence (Q9UBE0 whole entry): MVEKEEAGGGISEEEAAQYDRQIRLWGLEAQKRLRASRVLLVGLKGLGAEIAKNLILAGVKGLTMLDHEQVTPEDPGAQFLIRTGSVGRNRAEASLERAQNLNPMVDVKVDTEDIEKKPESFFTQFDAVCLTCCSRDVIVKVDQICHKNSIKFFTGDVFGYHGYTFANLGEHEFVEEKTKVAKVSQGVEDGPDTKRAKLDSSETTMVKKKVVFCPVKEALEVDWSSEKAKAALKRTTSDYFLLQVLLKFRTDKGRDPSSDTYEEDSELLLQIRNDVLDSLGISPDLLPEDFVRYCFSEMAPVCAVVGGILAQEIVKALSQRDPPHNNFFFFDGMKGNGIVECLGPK
SUMO-activating enzyme, sequence (Q9UBT2 whole entry): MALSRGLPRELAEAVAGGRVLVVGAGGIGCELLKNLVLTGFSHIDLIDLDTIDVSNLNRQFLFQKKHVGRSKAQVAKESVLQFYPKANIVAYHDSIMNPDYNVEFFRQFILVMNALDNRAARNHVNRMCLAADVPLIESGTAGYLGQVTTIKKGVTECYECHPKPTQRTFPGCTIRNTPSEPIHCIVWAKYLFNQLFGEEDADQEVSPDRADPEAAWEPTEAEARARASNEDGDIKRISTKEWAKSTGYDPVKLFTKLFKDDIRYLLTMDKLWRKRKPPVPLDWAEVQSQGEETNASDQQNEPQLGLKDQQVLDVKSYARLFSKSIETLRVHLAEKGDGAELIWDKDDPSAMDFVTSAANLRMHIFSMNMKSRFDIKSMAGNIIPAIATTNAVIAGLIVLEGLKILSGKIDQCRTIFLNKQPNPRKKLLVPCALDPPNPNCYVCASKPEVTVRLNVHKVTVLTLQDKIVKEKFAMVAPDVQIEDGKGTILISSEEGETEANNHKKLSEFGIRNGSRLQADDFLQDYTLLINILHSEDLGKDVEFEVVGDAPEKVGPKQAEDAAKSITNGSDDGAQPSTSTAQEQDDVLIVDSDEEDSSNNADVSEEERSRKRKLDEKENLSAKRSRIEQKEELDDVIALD
Eukaryotic translation initiation factor 4E, sequence (P63073 whole entry): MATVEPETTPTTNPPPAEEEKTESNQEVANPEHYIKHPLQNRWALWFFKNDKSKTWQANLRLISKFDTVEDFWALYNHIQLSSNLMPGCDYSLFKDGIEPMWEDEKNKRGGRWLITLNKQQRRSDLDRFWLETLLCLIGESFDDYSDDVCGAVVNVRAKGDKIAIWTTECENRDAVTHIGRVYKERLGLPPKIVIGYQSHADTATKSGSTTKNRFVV

Compound: CN(Cc1ccc(F)cc1)S(=O)(=O)c1nnc(NC(=O)c2ccccc2)s1
- EC50 (HEK293 [2]): 3.08 µM (active)
- IC50 (HEK293 [3]): > 20 µM (inactive)
- IC50 (HEK293 [4]): > 20 µM (inactive)
- IC50 (HEK293 [5]): 16.7 µM (inactive)
- IC50 (Tumor necrosis factor): 15.1 µM (active)
- IC50 [6]: 11.1 µM (active)
- IC50 (HEK293 [7]): > 20 µM (inactive)

Compound: C(=C\c1ccco1)/C1=NN(c2ccccc2)C(c2ccco2)C1 (configuration not stated)
- IC50 [9]: 22.8 µM (active)
- IC50 [10]: > 100 µM (inactive)
- IC50 (Prothrombin): 14.8 µM (active)

Compound: CCC(=O)[C@]12O[C@@]3(C4C(=O)OCCC41)N(CC)C(C)=C(C(=O)OC)C(c1ccccc1)N3C2=O (some centres not stated)
- AC50 (Cytochrome P450 3A4): 5.01 µM (inconclusive)

Compound: CCN1C(N(C)CCc2cccs2)=N[C@@H](c2ccccc2)C(C(=O)OC)=C1C
- IC50 [13]: 6.31 µM (active)
- IC50 [14]: 8.2 µM (active)

Compound: COc1ccc(C(CNCC(=O)Nc2ccccc2F)N(C)C)cc1 (configuration not stated)
- EC50 [1]: 0.133 µM (active)

Compound: CN1CCN(CC(=O)Nc2sc3c(c2C(=O)Nc2ccccc2)CCCC3)CC1
- IC50 [13]: 6.88 µM (active)
- IC50 [14]: 5.56 µM (active)

Compound: COc1ccc(CNc2ncnc3sccc23)cc1OC
- EC50 (HEK293 [2]): 5.37 µM (active)
- IC50 (HEK293 [3]): 17.4 µM (active)
- IC50 (HEK293 [4]): > 20 µM (inactive)
- IC50 (HEK293 [5]): > 20 µM (inactive)
- IC50 (Tumor necrosis factor): 13 µM (active)
- IC50 [6]: 9.64 µM (active)
- AC50 [15]: 2.34 µM (active)
- AC50 [16]: 68.3 µM (active)
- AC50 [17]: 5.11 µM (active)
- IC50 (HEK293 [7]): > 20 µM (inactive)

Compound: Cc1cc(C)cc(-n2cccc2/C=C2/C(=N)N3C(=NC2=O)SN=C3S(C)(=O)=O)c1
- IC50 [9]: 37.6 µM (active)
- IC50 [10]: 81.6 µM (active)
- IC50 (Prothrombin): 74.6 µM (active)

Compound: CCCCNC(=O)c1ccc2c(OCC)n(CCCC)nc2c1
- IC50 [8]: 13.1 µM (active)

Compound: COc1ccccc1NC(=O)c1sc2ncn(CC(=O)Nc3ccccc3)c(=O)c2c1C
- IC50 (SUMO-activating enzyme): 20.4 µM (active)

Compound: Cc1c(NC(=O)c2nc[nH]n2)cccc1-c1nc2ccccc2s1
- IC50 [13]: 1.58 µM (active)
- IC50 [14]: 2.54 µM (active)

Compound: CCc1n(CC(O)COCC2CC=CCC2)c2ccccc2[n+]1C (configuration not stated)
- IC50 [13]: 1.93 µM (active)
- IC50 [14]: 3.7 µM (active)

Compound: COC(C)C(O)(C(=O)OC1=CCN2CC[C@H](O)[C@H]12)C(C)C (some centres not stated)
- AC50 (Cytochrome P450 3A4): 50.1 µM (inconclusive)

Compound: Cc1nc(CN(C)C(=O)c2cc(COc3ccc4ncccc4c3)on2)cs1
- EC50 (HEK293 [2]): 2.75 µM (active)
- IC50 (HEK293 [3]): 7.67 µM (active)
- IC50 (HEK293 [4]): > 20 µM (inactive)
- IC50 (HEK293 [5]): 14.3 µM (inactive)
- IC50 (Tumor necrosis factor): > 20 µM (inactive)
- IC50 [6]: > 20 µM (inactive)
- IC50 (HEK293 [7]): > 20 µM (inactive)

Results, then the molecule that gave them:

- EC50 (Melanocortin receptor 4): > 89.2 µM (inactive)
Compound: COc1ccccc1NC(=O)Nc1nc(C(N)Cc2ccc(Cl)cc2)cs1 (configuration not stated)

- EC50 [1]: 5.31 µM (active)
Compound: Fc1ccc(-c2nnc(CN3CCN(c4ncc(C(F)(F)F)cc4Cl)CC3)o2)cc1

- IC50 [8]: 13.8 µM (active)
Compound: Cc1ccc2cc3c(NS(=O)(=O)c4cccc5nonc45)nn(CC(C)C)c3nc2c1

- IC50 [8]: 18.2 µM (active)
Compound: CCn1cc(CNC(=O)c2cc(COc3ccc(F)cc3F)on2)cn1

- AC50 [11]: 0.598 µM (active)
- IC50 [9]: 26.2 µM (active)
- IC50 [10]: > 100 µM (inactive)
- IC50 (Prothrombin): 86.9 µM (active)
Compound: Cc1ccc(-n2cccc2/C=C2/C(=N)N3C(=NC2=O)SN=C3S(C)(=O)=O)cc1

- IC50 [12]: > 64 µM (inactive)
- EC50 (Melanocortin receptor 4): > 89.2 µM (inactive)
Compound: CCn1c(SCC(=O)Nc2ccc(C(C)=O)cc2)nc2nc3c(cc2c1=O)CCCC3

- EC50 [1]: 4.73 µM (active)
Compound: CN1CCN(c2ccc(C(F)(F)F)cc2NC(=O)Nc2ccccc2)CC1

- EC50 [1]: 10.6 µM (active)
Compound: Fc1ccc(C2CCNCC2COc2ccc3c(c2)OCO3)cc1 (configuration not stated)

- EC50 (Melanocortin receptor 4): > 89.2 µM (inactive)
Compound: CC1(C)Oc2ccc3ccc(=O)oc3c2C(/C=N/c2ccc(O)cc2)=C1O

- AC50 [18]: 6.39 µM (active)
Compound: COc1ccc2cc(-c3cccnc3)ncc2c1
